# Patent publication US20150259344A1, “IMIDAZOLE DERIVATIVE” (DAINIPPON SUMITOMO PHARMA CO., LTD., priority 2012, published 2015)
# Molecular target: T1, human α7 nAChR (Homo sapiens, UniProt P36544)
# T1 construct: expressed in transfected cells
# Test: Evaluation of PAM activity with human α7 nACh receptor stably expressing cells (aequorin luminescence, FDSS7000)
# Format: cell-based
# Settings: 1 μM test compound (values marked *, footnote of Table 25); ACh at EC20; ratio of RLU (Max-Min) to control wells; read-out: α7PAM (%) @1 μM
# Method: Evaluation of PAM activity with human α7 nACh receptor stably expressing cells
# (1) Human α7 nAChR stably expressing cells
# Human α7 nAChR stably expressing cells were generated and cultured.
# Thus, the cells were subcultured.
# Seven days after subculturing, the cells were treated with TrypLE Express to collect them when they were about 80% confluent.
# On the next day after seeding, Viviren (cat#E649X, Promega, Madison, Wis., USA) was added to the medium so that the final concentration could be 4 μM (15 μL/well). The plates were centrifuged and then placed in the dark for 4 hours at room temperature.
# (2) Preparation of the Test Samples
# Each of the test compounds was dissolved in DMSO to prepare each test sample at a concentration of 1000-fold the final concentration. To the solution was added Hanks/20 mM HEPES/0.2% BSA (cat#A3803, Sigma, St. Louis, Mo., USA), and the concentration was adjusted to 6-fold the final concentration.
# (3) Evaluation of PAM Activity
# FDSS7000 (Hamamatsu Photonics) was used to detect the luminescence signal evoked by α7 nAChR stimulation. The cells and a luminescent substrate were put on a plate, and the test sample was added thereto. […] The ratio of the RLU (Max-Min) of the test-compound-containing wells to that of the control wells was defined as PAM activity.
# T1 sequence (P36544 23-502): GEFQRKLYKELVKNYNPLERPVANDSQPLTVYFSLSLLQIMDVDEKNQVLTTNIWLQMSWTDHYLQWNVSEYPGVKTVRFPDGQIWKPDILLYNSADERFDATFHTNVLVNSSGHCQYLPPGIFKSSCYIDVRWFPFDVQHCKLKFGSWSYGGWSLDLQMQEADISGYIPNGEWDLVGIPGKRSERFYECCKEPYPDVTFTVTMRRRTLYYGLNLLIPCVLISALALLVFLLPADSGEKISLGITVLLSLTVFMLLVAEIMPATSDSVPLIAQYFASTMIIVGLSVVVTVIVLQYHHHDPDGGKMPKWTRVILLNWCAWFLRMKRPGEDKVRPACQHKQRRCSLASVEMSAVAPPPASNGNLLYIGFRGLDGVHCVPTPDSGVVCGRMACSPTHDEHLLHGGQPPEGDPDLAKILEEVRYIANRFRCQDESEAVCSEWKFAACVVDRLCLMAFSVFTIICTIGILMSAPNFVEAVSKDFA
row,Structure (SMILES),activity at 1 µM
1,O=C(NC1CCOCC1)[C@H]1CC[C@@H](n2cnc(-c3cccc(F)c3)c2)CC1 [Example 355],118%
2,CC(C)(C)C(=O)N[C@H]1CC[C@@H](n2cnc(-c3cccc(C(F)(F)F)c3)c2C#N)CC1 [Example 200],180%
3,O=C(NC1CCC1)N1CCC(n2cnc(-c3ccccc3)c2Cl)CC1 [Example 79],112%
4,CC(C)(F)C(=O)N[C@H]1CC[C@@H](n2cnc(-c3cc(F)c(F)cc3F)c2)CC1 [Example 313],273%
5,CC(C)(F)C(=O)N[C@H]1CC[C@@H](n2cnc(-c3ccc(OC(F)(F)F)c(F)c3)c2)CC1 [Example 296],589%
6,O=C(N[C@H]1CC[C@@H](n2cnc(-c3cccc(F)c3)c2Cl)CC1)C1CCC1 [Example 176],258%
7,O=C(NC1CCCCC1)N1[C@@H]2CC[C@H]1C[C@@H](n1cnc(-c3ccc(F)cc3F)c1)C2 [Example 385],218%

# Same assay, conditions: 10 μM test compound; ACh at EC20; ratio of RLU (Max-Min) to control wells; read-out: α7PAM (%) @10 μM
row,Structure (SMILES),activity at 10 µM
1,N#Cc1c(-c2cccc(C(F)(F)F)c2)ncn1C1CCN(C(=O)C2CCC(F)(F)CC2)CC1 [Example 158],132%
2,O=C(NC1CCCCC1)N1CCC(n2cnc(-c3ccccc3)c2CO)CC1 [Example 110],201%
3,CC(C)(F)C(=O)N[C@H]1CC[C@@H](n2cnc(-c3cc(F)ccc3F)c2Cl)CC1 [Example 329],643%
4,O=C(NC1CCCC1)N1CCC(n2cnc(-c3cccc(F)c3)c2)CC1 [Example 30],319%
5,CCOc1ccc(-c2cn(C3CCN(C(=O)NC4CCCCC4)CC3)cn2)cc1 [Example 55],403%
6,O=C(NC1CCCCC1)N1CCC(n2cnc(-c3ccc4c(c3)CCO4)c2)CC1 [Example 43],250%
7,CC(C)(F)C(=O)N[C@H]1CC[C@@H](n2cnc(-c3cc(OC(F)(F)F)ccc3F)c2C#N)CC1 [Example 349],290%
8,O=C(NC1CCC(F)(F)CC1)N1[C@@H]2CC[C@H]1C[C@H](n1cnc(-c3ccc(F)cc3F)c1)C2 [Example 407],904%
9,N#Cc1c(-c2ccc(F)cc2)ncn1[C@H]1CC[C@@H](NC(=O)C2CCC(F)(F)CC2)CC1 [Example 335],312%
10,O=C(C1CCC(F)(F)CC1)N1CCC(n2cnc(-c3cccc(OC(F)F)c3)c2)CC1 [Example 145],363%
11,O=C(NC1CCC(F)(F)CC1)N1[C@@H]2CC[C@H]1C[C@@H](n1cnc(-c3cccc(F)c3F)c1)C2 [Example 386],880%
12,"O=C(NC1CCCCC1)[C@H]1CC[C@@H](n2cnc(-c3ccccc3)c2)CC1 [Example 9, cis-N-Cyclohexyl-4-(4-phenyl-1H-imidazol-1-yl)cyclohexanecarboxamide]",121%
13,O=C(NC1CCOCC1)[C@H]1CC[C@@H](n2cnc(-c3cccc(F)c3F)c2Cl)CC1 [Example 371],962%
14,O=C(NC1CCCCC1)N1CCC(n2cnc(-c3ccccn3)c2Cl)CC1 [Example 134],171%
15,O=C(N[C@H]1CC[C@@H](n2cnc(-c3ccc(F)cc3)c2Cl)CC1)C1CCOCC1 [Example 323],421%
16,O=C(NC1CC2CCC1C2)N1CCC(n2cnc(-c3ccc(OC(F)F)cc3)c2)CC1 (stereo not shown) [Example 57],302%
17,O=C(C1CCOCC1)N1[C@@H]2CC[C@H]1C[C@@H](n1cnc(-c3cccc(F)c3F)c1Cl)C2 [Example 440],508%
18,O=C(NC1CCCCC1)N1CCC(n2cnc(-c3ccccc3)c2C2CC2)CC1 [Example 108],576%
19,CC(C)(F)C(=O)N[C@H]1CC[C@@H](n2cnc(-c3ccc(OC(F)(F)F)c(F)c3)c2Cl)CC1 [Example 324],860%
20,N#Cc1c(-c2cc(F)cc(F)c2)ncn1[C@H]1CC[C@@H](C(=O)NC2CCOCC2)CC1 [Example 376],426%
21,CC(F)(F)C(=O)N[C@H]1CC[C@@H](n2cnc(-c3ccc(Cl)cc3)c2)CC1 [Example 291],420%

row,Structure (SMILES),activity at 10 µM
1,O=C(N[C@H]1CC[C@H](n2cnc(-c3ccccc3)c2)CC1)C1CCCCC1 [Example 204],172%
2,CC(C)(F)C(=O)N[C@H]1CC[C@@H](n2cnc(-c3ccc(F)c(F)c3)c2)CC1 [Example 310],227%
3,O=C(NC1CCC(F)(F)CC1)N1CCC(n2cnc(-c3ccccc3)c2)CC1 [Example 39],823%
4,O=C(C1CCC(F)(F)CC1)N1CCC(n2cnc(-c3ccc(OC(F)F)cc3)c2)CC1 [Example 146],572%
5,CC(C)(C)C(=O)N[C@H]1CC[C@@H](n2cnc(-c3ccccc3)c2Cl)CC1 [Example 167],221%
6,O=C(NC1CCCCC1)N1CCC(n2cnc(-c3ccc(Cl)cc3)c2)CC1 [Example 20],656%
7,O=C(NC1CCCCC1)N1CCC(n2cnc(-c3ccc(F)c(F)c3)c2)CC1 [Example 26],563%
8,Cc1ccc(-c2cn(C3CCN(C(=O)NC4CCCC4)CC3)cn2)s1 [Example 122],459%
9,O=C(NC1CCCCC1)N1CCC(n2cnc(-c3cccs3)c2)CC1 [Example 123],345%
10,O=C(N[C@H]1CC[C@@H](n2cnc(-c3ccc(C(F)(F)F)cc3)c2Cl)CC1)C1CCC1 [Example 196],498%
11,CC(C)(F)C(=O)N[C@H]1CC[C@@H](n2cnc(-c3cc(Cl)ccc3F)c2)CC1 [Example 284],398%
12,O=C(NC1CCC(F)(F)CC1)N1CCC(n2cnc(-c3cccs3)c2)CC1 [Example 125],466%
13,O=C(NC1CCOCC1)N1[C@@H]2CC[C@H]1C[C@@H](n1cnc(-c3cccc(F)c3F)c1Cl)C2 [Example 399],891%
14,N#Cc1c(-c2ccc(C(F)(F)F)cc2)ncn1[C@H]1CC[C@@H](C(=O)NC2CCOCC2)CC1 [Example 377],988%
15,O=C(C1CCC(F)(F)CC1)N1[C@@H]2CC[C@H]1C[C@H](n1cnc(-c3ccccc3F)c1)C2 [Example 448],276%
16,CC(C)(F)C(=O)N[C@H]1CC[C@@H](n2cnc(-c3cccc(F)c3)c2)CC1 [Example 294],326%
17,COc1cc(-c2ncn([C@H]3CC[C@@H](NC(=O)C(C)(C)F)CC3)c2Cl)ccc1F [Example 186],254%
18,CC(C)(C)NC(=O)N1CCC(n2cnc(-c3ccc(F)cc3)c2)CC1 [Example 63],160%
19,"CO[C@H]1CC[C@H](NC(=O)N2CCC(n3cnc(-c4ccc(C(F)(F)F)cc4)c3)CC2)CC1 [Example 4, N-(trans-4-Methoxycyclohexyl)-4-{4-[4-(trifluoromethyl)phenyl]-1H-imidazol-1-yl}piperidine-1-carboxamide]",220%
20,CC(C)(C)NC(=O)N1CCC(n2cnc(-c3ccccc3F)c2Cl)CC1 [Example 92],758%

# Same assay, conditions: GH4-C1, 10 μM test compound; ratio of RLU (Max-Min) of test wells to control wells after ACh at EC20; GH4C1 cells expressing human α7 nAChR and aequorin; read-out: α7PAM (%) @10 μM
row,Structure (SMILES),activity at 10 µM
1,"FC(F)(F)c1cc(N[C@H]2CC[C@@H](n3cnc(-c4ccccc4)c3)CC2)ncn1 [Example 235, N-[cis-4-(4-Phenyl-1H-imidazol-1-yl)cyclohexyl]-6-(trifluoromethyl)pyrimidin-4-amine]",631%
2,O=C(NC1CCCCC1)[C@H]1CC[C@H](n2cnc(-c3ccccc3)c2)CC1 [Example 231],149%

# Same assay, conditions: comparison across Tables 18 to 25
row,Structure (SMILES),PAM activity for α7 nAChR (in words)
1,O=C(NC1CCCCC1)N1CCC(n2cnc(-c3ccccc3)c2Cl)CC1 [Example 73],stronger PAM activity than others
2,Cc1ccc(-c2cn(C3CCN(C(=O)NC4CCCCC4)CC3)cn2)cc1 [Example 18],stronger PAM activity than others
